Results as given in EP4623911A1, “PI4KB INHIBITORS FOR THE TREATMENT OF FATTY LIVER DISEASE” (ETH Zurich, priority 2024, dated 2025).
“Also recorded” adds a separate entry of the source.

System: murine NASH model
Experiment: Murine NASH model (HFD, glucose/fructose drinking water, thermoneutral housing) treated with UCB9608
Format: in vivo, mice
Description: To model NASH in murine liver, male C57BL/6N mice were challenged with HFD for 24 weeks in conjunction with 18.9 g/L glucose&23.1 g/L fructose containing drinking water under thermoneutral housing condition (29°C) for 12 weeks before the administration of UCB9608 through HFD (15 mg/kg) for another 12 weeks. Then the mice were analysed in EcoMRI for body composition measurement before 6 hours fasting, followed by dissection to harvest liver and sample blood.
Total RNA was extracted from adipose depots, liver or in vitro cell cultures via Trizol reagent (Invitrogen) according to the manufacturer's instructions. Genomic DNA was removed from the crude RNA samples by DNase treatment (NEB BioLabs). For individual sample, 1 µg of total RNA was used to convert into cDNA library by using the High-Capacity cDNA Reverse transcription kit (Applied Biosystems, 4368813). Quantitative PCR was performed using KAPA SYBR FAST Universal kit (Roche, KK4618) on ViiA7 (Applied Biosystems) and the relative transcript levels were normalized to […] expression via ΔΔCt method. Table 2: Sequences of qPCR primers used in this study.
Plasma collected from mice under different conditions was used to determine levels of lipolysis and liver injury. FFA levels were measured via NEFA assay kit (Wako NEFA kit). TG levels were determined via TG assay kit (Roche Trig/GB reagent). ALT (MAK052, Sigma) and AST (MAK055, Sigma) assay kits were used to determine ALT and AST activity according to the manufacturer's instructions. The absorbance was monitored using Synergy Gen5 Platereader.
Weight of liver pieces (50-100 mg) was recorded before homogenization by 1 mL isopropanol per 50 mg tissue. The homogenates were incubated at room temperature with rotating before spinning down to remove debris at 2000×g for 10 min and collect supernatant. The TG levels were determined (Roche Trig/GB reagent) in Synergy Gen5 Platereader and normalized to the weight of liver pieces.
For NASH cohort, livers were dissected and fixed with 4% PFA in PBS for 24 h at 4°C. The samples were sent to the University of Zurich for histologic analyses. Briefly, liver tissues were dehydrated and embedded in paraffin and underwent section at 3 µm. The slides were stained with hematoxylin and eosin (H&E) and Gomori Green Trichrome directly or stained with anti-cleaved Caspase 3 after antigen retrieval. Afterwards, the images were captured by digital slide scanners and the grade of steatosis, ballooning, inflammation and fibrosis were quantified via the NASH Clinical Research Network Scoring System (Kleiner,D.E. et al. Hepatology 41, (2005)). To perform ORO staining, the fixed samples were sectioned, and the slides were stained via Oil Red O solution, followed by counter-staining with eosin. The images were acquired by digital slide scanners.

[1] = NASH mice, 12 weeks after administration of UCB9608
[2] = liver histology, NASH mice, UCB9608 vs vehicle

Structure (SMILES): COc1ccc(NC(=O)N2CCN(c3nc(N)nc4c3cnn4C)[C@@H](C)C2)c(C)c1 [UCB9608]
- transcript levels of inflammatory markers (NASH livers, qPCR): mitigation
- fibrosis-related marker expression (NASH livers, qPCR, vs vehicle-treated control NASH mice): substantially ameliorated
- TG levels in the plasma [1]: reduction; also recorded: reduced
- lipolysis (plasma FFA levels) [1]: enhanced
- ALT activity in the plasma (NASH mice, UCB9608 12 weeks): reduction
- AST activity in the plasma (NASH mice, UCB9608 12 weeks): reduction
- hepatic TG levels (NASH mice, UCB9608 12 weeks): reduced
- liver mass/body weight ratio (NASH mice, UCB9608 12 weeks): reduced
- body weight (NASH mice, UCB9608 through HFD (15 mg/kg) for 12 weeks): significant loss
- fat mass (NASH mice, UCB9608 through HFD (15 mg/kg) for 12 weeks, EcoMRI): significant loss
- NAFLD activity score [2]: significantly lower
- fibrosis grade [2]: significantly lower
- inflammation levels [2]: significantly lower
- liver injury [2]: significantly lower
- steatosis grade [2]: significantly lower
- fatty acid oxidation (liver of NASH mice, UCB9608 12 weeks): significant elevation
